The source of these data is paper PMC12687421, “Characterisation of an allosteric site in PLCγ enzymes and implications for development of their specific inhibitors” (Biochemical Journal, 2025).

A value given as a limit tells only on which side of the number the result lay.

In this experiment the target is T1, hPLCγ1 (Homo sapiens, UniProt P19174, I813T).
T1 construct: specific activities of PLCγ1^wt and PLCγ2^wt full-length proteins; made in house; host or cells: Escherichia coli T7 Express lysY/Iq
T1 sequence (P19174 1-1291 isoform P19174-2 I813T): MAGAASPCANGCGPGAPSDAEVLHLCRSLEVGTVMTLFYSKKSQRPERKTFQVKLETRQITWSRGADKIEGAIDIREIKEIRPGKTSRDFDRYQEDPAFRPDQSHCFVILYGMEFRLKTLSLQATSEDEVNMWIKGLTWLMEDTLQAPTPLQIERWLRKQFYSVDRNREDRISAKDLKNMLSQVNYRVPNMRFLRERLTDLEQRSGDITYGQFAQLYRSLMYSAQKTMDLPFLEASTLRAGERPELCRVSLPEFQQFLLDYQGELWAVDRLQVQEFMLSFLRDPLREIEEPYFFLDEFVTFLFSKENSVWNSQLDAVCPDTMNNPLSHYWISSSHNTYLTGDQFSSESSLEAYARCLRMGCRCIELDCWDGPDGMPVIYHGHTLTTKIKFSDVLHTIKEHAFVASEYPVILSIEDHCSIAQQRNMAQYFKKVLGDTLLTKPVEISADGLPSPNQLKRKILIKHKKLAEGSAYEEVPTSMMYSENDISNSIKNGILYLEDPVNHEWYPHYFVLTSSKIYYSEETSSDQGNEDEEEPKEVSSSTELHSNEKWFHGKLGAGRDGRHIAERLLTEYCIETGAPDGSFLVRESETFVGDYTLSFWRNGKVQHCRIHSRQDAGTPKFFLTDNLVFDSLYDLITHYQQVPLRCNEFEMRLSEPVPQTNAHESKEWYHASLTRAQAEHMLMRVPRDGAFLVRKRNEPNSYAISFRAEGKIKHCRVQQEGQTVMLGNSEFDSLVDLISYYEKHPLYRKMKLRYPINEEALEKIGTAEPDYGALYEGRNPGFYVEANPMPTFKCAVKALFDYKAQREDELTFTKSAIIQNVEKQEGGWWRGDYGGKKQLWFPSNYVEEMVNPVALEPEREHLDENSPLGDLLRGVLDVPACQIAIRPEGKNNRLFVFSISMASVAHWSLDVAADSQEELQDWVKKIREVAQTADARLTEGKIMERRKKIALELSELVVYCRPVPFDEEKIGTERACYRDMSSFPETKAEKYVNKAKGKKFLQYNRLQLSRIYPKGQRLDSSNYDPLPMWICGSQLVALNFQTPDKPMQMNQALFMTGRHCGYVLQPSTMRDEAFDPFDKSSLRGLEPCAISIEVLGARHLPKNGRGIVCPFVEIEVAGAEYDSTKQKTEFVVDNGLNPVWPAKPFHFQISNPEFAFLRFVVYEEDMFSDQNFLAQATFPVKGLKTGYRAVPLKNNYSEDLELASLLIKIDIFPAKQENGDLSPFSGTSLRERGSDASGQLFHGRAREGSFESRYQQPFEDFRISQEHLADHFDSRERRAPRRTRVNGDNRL
Briefly: Hydrogen deuterium exchange mass spectrometry (HDX-MS), apo vs 10 µM ADP. In kind it is binding. As to the method: HDX reactions comparing apo hPLCγ1 to hPLCγ1 incubated with ADP were carried out in a 15 µl reaction volume containing 10 pmol of hPLCγ1 (0.67 µM) and 10 µM of ADP and 1.67% DMSO. The exchange reactions were initiated by the addition of 10.0 µl of D2O buffer (25 mM HEPES pH 7.5, 150 mM NaCl, 2 mM TCEP 92.25% D2O (V/V)) to 5.0 µl of protein (final D2O concentration of 61.5%). Reactions proceeded for 3 s at 0°C, 30 s, 300 s and 3000 s at 20°C before being quenched with ice cold acidic quench buffer, resulting in a final concentration of 0.6M guanidine HCl and 0.9% formic acid post quench. All conditions and time points were created and run in independent triplicate. Samples were flash frozen immediately after quenching and stored at -80°C until injected onto the ultra-performance liquid chromatography (UPLC) system for proteolytic cleavage, peptide separation and injection onto a QTOF for mass analysis, described below.
Protein samples were rapidly thawed and injected onto an integrated fluidics system containing a HDx-3 PAL liquid handling robot and climate-controlled (2°C) chromatography system (Trajan), a Waters Acquity UPLC I-Class Series System, as well as an Impact HD QTOF Mass spectrometer (Bruker). The full details of the automated LC system were previously described. The samples were run over an immobilised pepsin column (Affipro; Enzymate Protein Pepsin Column, 2.1 mm X 20 mm) at 200 µl/min for 3 minutes at 2°C. […]
Peptides were identified from the non-deuterated samples of p110α using data-dependent acquisition following tandem MS/MS experiments (0.5 s precursor scan from 150 to 2000 m/z; twelve 0.25 s fragment scans from 150 to 2000 m/z). MS/MS datasets were analysed using FragPipe v18.0 and peptide identification was carried out by using a false discovery-based approach using a database of purified proteins and known contaminants [[35–37]]. […]
HD-Examiner Software (Trajan) was used to automatically calculate the level of deuterium incorporation into each peptide. […] Deuteration levels were calculated using the centroid of the experimental isotope clusters. […]

Consider `Nc1ncnc2c1ncn2[C@@H]1O[C@H](COP(=O)(O)OP(=O)(O)O)[C@@H](O)[C@H]1O` [ADP], for which, under “amino acids 24–35 in the nPH domain”, the “difference in deuterium exchange (increase in exchange)” value is 4.5–10%. The “difference in deuterium exchange (protection)” value is reported as 4.5–10% (amino acids 330–347, 367–386, 863–882 and 957–973); greater than 10% (amino acids 481–495).
